Earlier results on five compounds are cited in US11147946B2, “Venous access catheters and methods for portal venous system catheterization” (THE REGENTS OF THE UNIVERSITY OF COLORADO, A BODY CORPORATE, priority 2014, dated 2021).

Numbered stars: 1 amine (or outer) side, 2 acyl side, 3 side chain; on linkers, the order of the positions; unused ones are H or OH. Square brackets hold non-standard residues; d marks the D form. Side chains are listed from the residue outwards. Peptide text beside a SMILES is read from it. * marks the point of attachment. Ethylenediamine = C(CN[*:2])N[*:1]; Hyp = O=C(O)[C@@H]1C[C@@H](O)CN1; Phg = N[C@H](C(=O)O)c1ccccc1; CO = O=C([*:1])[*:2]; Bn = c1ccc(C*)cc1

Among the targets are SSTR2 (Homo sapiens, UniProt P30874); SSTR3 (Homo sapiens, UniProt P32745); SSTR1 (Homo sapiens, UniProt P30872); SSTR5 (Homo sapiens, UniProt P35346); SSTR4 (Homo sapiens, UniProt P31391).
Data set [1] concerns human breast (MCF7) carcinoma cell line.
Data set [2] concerns the target (Homo sapiens, UniProt P08069).
Data set [3] has as its system human pancreas (BxPC-3) carcinoma cell line.
Another data set relates to human tumour. Conditions: in vivo xenograft and orthotopic models.
For data set [4], the system named is human colon (Colo205) carcinoma cell line.
In a further data set the test system is portal hypertension. The conditions noted are these: compared with propranolol, cirrhosis.

Chain of SSTR2 (P30874 whole entry): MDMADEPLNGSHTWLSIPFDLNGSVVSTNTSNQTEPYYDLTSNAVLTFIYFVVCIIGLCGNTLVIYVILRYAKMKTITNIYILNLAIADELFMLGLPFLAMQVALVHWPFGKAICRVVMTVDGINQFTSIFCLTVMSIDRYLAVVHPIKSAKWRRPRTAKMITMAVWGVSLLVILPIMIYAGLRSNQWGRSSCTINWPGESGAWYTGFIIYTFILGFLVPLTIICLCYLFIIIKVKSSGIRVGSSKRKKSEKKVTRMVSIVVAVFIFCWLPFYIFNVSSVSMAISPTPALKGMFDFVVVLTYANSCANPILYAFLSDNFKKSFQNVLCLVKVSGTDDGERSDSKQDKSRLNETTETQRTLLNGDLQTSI
Chain of SSTR3 (P32745 whole entry): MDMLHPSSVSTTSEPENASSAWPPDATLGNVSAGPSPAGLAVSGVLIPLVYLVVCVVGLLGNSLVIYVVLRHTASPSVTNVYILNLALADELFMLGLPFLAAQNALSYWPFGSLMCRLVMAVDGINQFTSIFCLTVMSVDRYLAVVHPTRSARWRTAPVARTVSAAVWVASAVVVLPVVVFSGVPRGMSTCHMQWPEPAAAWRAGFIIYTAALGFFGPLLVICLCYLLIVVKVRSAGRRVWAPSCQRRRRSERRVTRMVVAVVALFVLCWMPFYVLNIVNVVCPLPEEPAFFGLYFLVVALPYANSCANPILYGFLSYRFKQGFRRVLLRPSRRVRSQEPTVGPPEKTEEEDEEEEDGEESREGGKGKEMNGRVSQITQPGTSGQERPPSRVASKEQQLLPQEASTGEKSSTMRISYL
Chain of SSTR1 (P30872 whole entry): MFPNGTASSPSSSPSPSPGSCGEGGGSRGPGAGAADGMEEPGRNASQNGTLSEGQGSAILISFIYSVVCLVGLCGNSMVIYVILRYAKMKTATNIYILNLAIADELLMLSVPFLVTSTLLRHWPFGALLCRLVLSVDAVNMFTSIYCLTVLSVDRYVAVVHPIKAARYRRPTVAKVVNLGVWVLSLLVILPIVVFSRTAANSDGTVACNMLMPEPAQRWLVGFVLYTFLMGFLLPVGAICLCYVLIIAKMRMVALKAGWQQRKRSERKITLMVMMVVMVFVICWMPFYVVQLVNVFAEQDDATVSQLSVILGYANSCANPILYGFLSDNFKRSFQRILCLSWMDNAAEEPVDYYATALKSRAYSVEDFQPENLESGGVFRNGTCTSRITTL
Chain of SSTR4 (P31391 whole entry): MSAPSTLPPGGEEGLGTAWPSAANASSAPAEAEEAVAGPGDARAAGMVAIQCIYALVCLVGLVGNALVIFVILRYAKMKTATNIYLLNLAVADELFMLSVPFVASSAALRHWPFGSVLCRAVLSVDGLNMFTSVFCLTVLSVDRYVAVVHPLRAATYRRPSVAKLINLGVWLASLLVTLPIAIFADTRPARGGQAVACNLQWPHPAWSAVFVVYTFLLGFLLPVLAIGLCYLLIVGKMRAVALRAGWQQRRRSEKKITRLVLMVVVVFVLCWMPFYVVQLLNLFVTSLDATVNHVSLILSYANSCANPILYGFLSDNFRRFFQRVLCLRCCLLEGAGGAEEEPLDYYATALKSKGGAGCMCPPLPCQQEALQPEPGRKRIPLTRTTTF
Chain of (Homo sapiens, UniProt P08069) (P08069 31-736 limits assumed): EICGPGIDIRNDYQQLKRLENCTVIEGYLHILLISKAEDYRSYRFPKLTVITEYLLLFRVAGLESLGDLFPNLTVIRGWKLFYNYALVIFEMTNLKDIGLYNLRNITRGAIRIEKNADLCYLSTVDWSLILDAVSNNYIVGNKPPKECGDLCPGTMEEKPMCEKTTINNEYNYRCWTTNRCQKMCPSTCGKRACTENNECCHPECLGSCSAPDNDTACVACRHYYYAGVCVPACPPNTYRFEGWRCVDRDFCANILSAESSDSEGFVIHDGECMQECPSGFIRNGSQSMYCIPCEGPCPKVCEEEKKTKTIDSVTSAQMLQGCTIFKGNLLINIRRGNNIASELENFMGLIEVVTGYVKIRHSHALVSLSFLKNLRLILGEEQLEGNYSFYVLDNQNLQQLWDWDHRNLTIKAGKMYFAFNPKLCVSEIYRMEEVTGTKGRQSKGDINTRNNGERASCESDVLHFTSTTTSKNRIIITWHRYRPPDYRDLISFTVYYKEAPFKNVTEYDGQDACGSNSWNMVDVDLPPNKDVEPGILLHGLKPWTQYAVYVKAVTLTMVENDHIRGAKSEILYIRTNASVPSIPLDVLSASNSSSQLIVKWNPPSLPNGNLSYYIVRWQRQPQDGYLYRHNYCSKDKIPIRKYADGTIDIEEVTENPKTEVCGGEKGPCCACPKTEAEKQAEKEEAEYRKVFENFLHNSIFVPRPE
Chain of (Homo sapiens, UniProt P08069) (P08069 741-1367 limits assumed): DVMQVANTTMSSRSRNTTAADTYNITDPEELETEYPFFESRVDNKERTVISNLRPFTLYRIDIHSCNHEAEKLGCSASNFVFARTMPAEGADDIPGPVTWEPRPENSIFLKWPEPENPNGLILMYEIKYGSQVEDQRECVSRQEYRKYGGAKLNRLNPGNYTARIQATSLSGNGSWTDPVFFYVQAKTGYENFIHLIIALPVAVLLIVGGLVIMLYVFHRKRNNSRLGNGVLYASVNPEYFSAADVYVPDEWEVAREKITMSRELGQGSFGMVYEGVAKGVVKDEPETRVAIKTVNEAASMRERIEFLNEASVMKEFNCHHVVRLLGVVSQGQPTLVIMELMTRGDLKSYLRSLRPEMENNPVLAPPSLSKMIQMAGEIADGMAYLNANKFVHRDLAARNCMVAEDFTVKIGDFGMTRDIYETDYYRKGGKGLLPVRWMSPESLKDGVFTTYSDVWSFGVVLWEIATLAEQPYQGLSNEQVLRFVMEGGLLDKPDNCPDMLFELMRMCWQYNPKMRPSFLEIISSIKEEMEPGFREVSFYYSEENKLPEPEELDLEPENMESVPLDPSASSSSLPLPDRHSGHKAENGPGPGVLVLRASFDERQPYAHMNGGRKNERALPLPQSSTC
Chain of SSTR5 (P35346 whole entry): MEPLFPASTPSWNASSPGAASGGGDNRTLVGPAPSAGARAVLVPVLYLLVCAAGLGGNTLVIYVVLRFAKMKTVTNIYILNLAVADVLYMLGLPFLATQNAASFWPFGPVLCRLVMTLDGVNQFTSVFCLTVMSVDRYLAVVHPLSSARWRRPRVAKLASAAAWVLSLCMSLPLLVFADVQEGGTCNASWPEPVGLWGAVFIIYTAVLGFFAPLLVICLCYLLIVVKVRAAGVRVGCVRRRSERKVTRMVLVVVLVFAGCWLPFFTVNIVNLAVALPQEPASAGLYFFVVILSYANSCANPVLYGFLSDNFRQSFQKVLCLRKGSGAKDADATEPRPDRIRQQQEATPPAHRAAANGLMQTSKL

In the case of `C[C@@H](O)[C@@H]1NC(=O)[C@H](CCCCN)NC(=O)[C@@H](Cc2c[nH]c3ccccc23)NC(=O)[C@H](Cc2ccccc2)NC(=O)[C@@H](NC(=O)[C@H](N)Cc2ccccc2)CSSC[C@@H](C(=O)N[C@H](CO)[C@@H](C)O)NC1=O` [octreotide], at SSTR2, the “binding affinity to SSTR2” value is reported as “high affinity”. Besides, the “binding affinity to SSTR3” value on SSTR3 is given as “reduced affinity”.

For the compound “IMC-A12: fully human monoclonal IgG1 antibody, anti-IGF1R”, the cell apoptosis entry in data set [1], in [3] and in data set [4] was “induces cell apoptosis” in each case. Also, the cell proliferation result in [1], in data set [3] and in data set [4] was “inhibits cell proliferation” in each case. Besides, the binding affinity entry in data set [2] is “high affinity”. Besides, the antitumour activity result with human tumour was “shown activity against a human tumour”.

In the case of `NCCCC[C@@H]1NC(=O)[C@@H](Cc2c[nH]c3ccccc23)NC(=O)[C@H](c2ccccc2)NC(=O)[C@@H]2C[C@@H](OC(=O)NCCN)CN2C(=O)[C@H](Cc2ccccc2)NC(=O)[C@H](Cc2ccc(OCc3ccccc3)cc2)NC1=O` [pasireotide] (cyclo([Hyp]([CO-Ethylenediamine])[Phg][dW]KY(Bn)F)), the “binding affinity to SSTR1” value at SSTR1 is reported as “decreased affinity”. Further, the “binding affinity to SSTR2” value at SSTR2 is given as “decreased affinity”. Besides, on SSTR3, the “binding affinity to SSTR3” value is on record as “decreased affinity”. In addition, at SSTR5, the “binding affinity to SSTR5” value is listed as “high affinity”.

In the case of `CC(C)[C@@H]1NC(=O)[C@H](CCCCN)NC(=O)[C@@H](Cc2c[nH]c3ccccc23)NC(=O)[C@H](Cc2ccc(O)cc2)NC(=O)[C@@H](NC(=O)[C@H](N)Cc2ccc3ccccc3c2)CSSC[C@@H](C(=O)N[C@H](C(N)=O)[C@@H](C)O)NC1=O` [lanreotide], the “binding affinity to SSTR1” value on SSTR1 was “reduced or no binding”. Further, the “binding affinity to SSTR2” value at SSTR2 was “high affinity”. Moreover, the “binding affinity to SSTR4” value on SSTR4 is “reduced or no binding”. The “binding affinity to SSTR3” value at SSTR3 was “reduced or no binding”.

With `COc1ccccc1OCCNCC(O)COc1cccc2[nH]c3ccccc3c12` (stereo not shown) [carvedilol], the “reduction of portal hypertension (PH)” value in the data set on portal hypertension was “more effective than propranolol”.
